The text below walks through data of ChEMBL document CHEMBL5512659, “Structure optimizing of flavonoids against both MRSA and VRE” (Eur J Med Chem, 2024).

The structures appear in SMILES notation. ≈ marks a conversion by molar mass, not a printed value. Calls of active or inactive are those of the source. The calls are words filed in the database; no cut-off is given here.

Data set [1] deals with Staphylococcus aureus. Kind of data set: Antibacterial activity against methicillin resistant Staphylococcus aureus clinical isolate 003 infected in cyclophosphamide immunosuppressed mouse model of skin wound infection assessed as wound healing by measuring wound area at 5 mg/kg administered for 7 days and measured on day 8 (reference value: 32.1 […]). In kind it is functional. Conditions: time 8 day.

The test system of data set [2] is Enterococcus faecalis. In words: Antibacterial activity against multidrug resistant Enterococcus faecalis ATCC 51299 in presence of 2.5 mM/L Ca+ (reference value: 1 ug/ml). Type of data set: functional.
In data set [3] the test system is Enterococcus faecalis. In words: Antibacterial activity against multidrug resistant Enterococcus faecalis ATCC 51299 in presence of phosphatidylglycerol. Type of data set: functional, organism-based.
The test system of data set [4] is Enterococcus faecalis. In words: Synergistic antibacterial activity against multidrug resistant Enterococcus faecalis ATCC 51299 assessed as fractional inhibitory concentration in presence of adriamycin hydrochloride. In kind it is functional.
The subject of data set [5] is Staphylococcus aureus. In words: Synergistic antibacterial activity against methicillin resistant Staphylococcus aureus clinical isolate 003 assessed as fractional inhibitory concentration in presence of lincomycin hydrochloride. Type of data set: functional.
Data set [6] concerns Staphylococcus aureus. Kind of data set: Antibacterial activity against methicillin resistant Staphylococcus aureus clinical isolate 003 infected in cyclophosphamide immunosuppressed mouse model of skin wound infection assessed as reduction in bacterial load in wound at 5 mg/kg administered for 7 days and measured on day 8 (reference value: 1.6 x 10^8 CFU). In kind it is functional. Conditions: time 8 day.

In data set [7] the test system is Staphylococcus aureus. In words: Antibiofilm activity in methicillin resistant Staphylococcus aureus clinical isolate 003 assessed as destruction of biofilm integrity at 0.5 to 4 times MIC measured after 24 hrs by inverted fluorescence microscopic analysis. In kind it is functional, organism-based.
Data set [8] is described as follows: Cytotoxicity against human L02 cells assessed as cell viability at 64 ug/ml measured after 48 hrs relative to control. The note with it: at 64 µg/mL, read-out: Activity. In kind it is toxicity, cell-based.
The subject of data set [9] is Enterococcus faecalis. Kind of data set: Antibacterial activity against Enterococcus faecalis clinical isolate 13. In kind it is functional.
Data set [10] relates to Enterococcus faecalis. Kind of data set: Antibiofilm activity in multidrug resistant Enterococcus faecalis ATCC 51299 assessed as biofilm clearance at 0.5 to 4 times MIC by crystal violet staining based analysis. Type of data set: functional, organism-based.
Data set [11] has as its system Staphylococcus aureus. In words: Antibacterial activity against methicillin resistant Staphylococcus aureus clinical isolate 011. In kind it is functional.
Data set [12] deals with Enterococcus faecalis. Kind of data set: Antibacterial activity against multidrug resistant Enterococcus faecalis ATCC 51299 in presence of peptidoglycan. In kind it is functional, organism-based.
For data set [13], the system named is Staphylococcus aureus. In words: Antibacterial activity against methicillin resistant Staphylococcus aureus clinical isolate 003 infected in cyclophosphamide immunosuppressed mouse model of skin wound infection assessed as reduction in inflammatory cells in skin at 1.25 to 5 mg/kg administered for 7 days and measured on day 8 by H and E staining based analysis. The note with it: dose 1.25-5 mg/kg, time 8.0 day. In kind it is functional, organism-based.

Data set [14] has as its system Staphylococcus aureus. In words: Antibacterial activity against methicillin resistant Staphylococcus aureus clinical isolate 003 infected in cyclophosphamide immunosuppressed mouse model of skin wound infection assessed as wound healing at 1.25 to 5 mg/kg administered for 7 days and measured on day 8. Type of data set: functional, organism-based. Conditions: dose 1.25-5 mg/kg, time 8.0 day.

Data set [15] concerns Staphylococcus aureus. In words: Antibacterial activity against methicillin resistant Staphylococcus aureus clinical isolate 003 infected in cyclophosphamide immunosuppressed mouse model of skin wound infection assessed as reduction in bacterial load in wound at 2.5 mg/kg administered for 7 days and measured on day 8 (reference value: 1.6 x 10^8 CFU). In kind it is functional. The note with it: time 8 day.

Data set [16] relates to Cell membrane. Kind of data set: Disruption of membrane permeability in multidrug resistant Enterococcus faecalis ATCC 51299 assessed as nucleic acid leakage at 2 to 4 times MIC.
Data set [17] has as its system Enterococcus faecalis. In words: Antibacterial activity against multidrug resistant Enterococcus faecalis ATCC 51299 in presence of 4.5 mM/L K+ (reference value: 1 ug/ml). Type of data set: functional.
The test system of data set [18] is Enterococcus faecalis. Kind of data set: Antibacterial activity against multidrug resistant Enterococcus faecalis ATCC 51299 in presence of 1 mM/L Mg2+ (reference value: 1 ug/ml). In kind it is functional.
The subject of data set [19] is Enterococcus faecalis. Kind of data set: Additive antibacterial activity against multidrug resistant Enterococcus faecalis ATCC 51299 assessed as fractional inhibitory concentration in presence of streptomycin. In kind it is functional.
For data set [20], the system named is Cell membrane. Kind of data set: Induction of cell membrane damage in multidrug resistant Enterococcus faecalis ATCC 51299 assessed as increase in red fluorescence at 2 to 4 times MIC by PI staining based analysis. Type of data set: cell membranes.
The subject of data set [21] is Staphylococcus aureus. In words: Antibacterial activity against methicillin resistant Staphylococcus aureus clinical isolate 003 infected in cyclophosphamide immunosuppressed mouse model of skin wound infection assessed as reduction in bacterial load in wound at 1.25 mg/kg administered for 7 days and measured on day 8 (reference value: 1.6 x 10^8 CFU). Conditions: time 8 day. In kind it is functional.

Data set [22] has as its system Staphylococcus aureus. Kind of data set: Antibacterial activity against methicillin resistant Staphylococcus aureus clinical isolate 003 in presence of 140 mM/L Na+ (reference value: 0.25 ug/ml). In kind it is functional.
Data set [23] concerns Staphylococcus aureus. In words: Additive antibacterial activity against methicillin resistant Staphylococcus aureus clinical isolate 003 assessed as fractional inhibitory concentration in presence of ampicillin. Type of data set: functional.
In data set [24] the test system is Staphylococcus aureus. Kind of data set: Additive antibacterial activity against methicillin resistant Staphylococcus aureus clinical isolate 003 assessed as fractional inhibitory concentration in presence of chloramphenicol. Type of data set: functional.
The subject of data set [25] is Enterococcus faecalis. Kind of data set: Additive antibacterial activity against multidrug resistant Enterococcus faecalis ATCC 51299 assessed as fractional inhibitory concentration in presence of lincomycin hydrochloride. Type of data set: functional.
The test system of data set [26] is Staphylococcus aureus. In words: Antibacterial activity against methicillin resistant Staphylococcus aureus clinical isolate 003 in presence of 1 mM/L Mg2+ (reference value: 0.25 ug/ml). Type of data set: functional.
The test system of data set [27] is Staphylococcus aureus. In words: Antibacterial activity against methicillin resistant Staphylococcus aureus clinical isolate 003 in presence of phosphatidylethanolamine. In kind it is functional, organism-based.
For data set [28], the system named is Staphylococcus aureus. Kind of data set: Antibacterial activity against methicillin resistant Staphylococcus aureus clinical isolate 003 infected in cyclophosphamide immunosuppressed mouse model of skin wound infection assessed as increase in wound healing by measuring increase in VEGF expression at 1.25 to 5 mg/kg administered for 7 days and measured on day 8 by immunohistochemical analysis. In kind it is functional, organism-based. Conditions: dose 1.25-5 mg/kg, time 8.0 day.

Data set [29] relates to Enterococcus faecalis. In words: Antibacterial activity against multidrug resistant Enterococcus faecalis ATCC 51299 in presence of 140 mM/L Na+ (reference value: 1 ug/ml). In kind it is functional.
The subject of data set [30] is Enterococcus faecalis. Kind of data set: Antibacterial activity against multidrug resistant Enterococcus faecalis ATCC 51299 infected in cyclophosphamide immunosuppressed mouse model of abdominal infection assessed as eradication of bacterial colonies in kidney at 1.25 to 5 mg/kg measured after 60 hrs relative to control. Type of data set: functional. The note with it: dose 1.25-5 mg/kg.

For data set [31], the system named is Cell membrane. Kind of data set: Induction of cell membrane damage in methicillin resistant Staphylococcus aureus clinical isolate 003 assessed as increase in red fluorescence at 2 to 4 times MIC by PI staining based analysis. Type of data set: cell membranes.
Data set [32] concerns Cell membrane. Kind of data set: Disruption of membrane permeability in multidrug resistant Enterococcus faecalis ATCC 51299 assessed as increase in malondialdehyde level.
Data set [33] concerns Staphylococcus aureus. In words: Antibacterial activity against methicillin resistant Staphylococcus aureus clinical isolate 003 in presence of 1 mM/L Mg2+ (reference value: 1 ug/ml). In kind it is functional.
In data set [34] the test system is Enterococcus faecalis. In words: Antibacterial activity against multidrug resistant Enterococcus faecalis ATCC 51299 in presence of 4.5 mM/L K+ (reference value: 32 ug/ml). In kind it is functional.
Data set [35] concerns Enterococcus faecalis. In words: Antibacterial activity against multidrug resistant Enterococcus faecalis ATCC 51299 in presence of 1 mM/L Mg2+ (reference value: 32 ug/ml). In kind it is functional.
For data set [36], the system named is Staphylococcus aureus. In words: Antibacterial activity against methicillin resistant Staphylococcus aureus clinical isolate 003 in presence of 140 mM/L Na+ (reference value: 1 ug/ml). Type of data set: functional.
Data set [37] deals with Enterococcus faecalis. Kind of data set: Antibacterial activity against multidrug resistant Enterococcus faecalis ATCC 51299 in presence of 140 mM/L Na+ (reference value: 32 ug/ml). In kind it is functional.

In general, MIC refers to the lowest concentration found to suppress growth.

`CCCCCCc1c(-c2ccc(OCCCCNCCCN)cc2OCCCCNCCCN)oc2cc(OC)cc(O)c2c1=O`: the Activity is 2.1 mm² in data set [1]; 9.4 10^6CFU in data set [6]; “Dose-Dependent Effect” in data set [7]; “Dose-Dependent Effect” in data set [10]; 8 10^6CFU in data set [15]; 9.2 10^6CFU in data set [21]. The Activity in [30] is reported as 99.2%. The MIC was 1 µg/mL in data set [2]; 0.5 µg/mL (≈ 0.78 µM) in data set [9]; 0.25 µg/mL (≈ 0.39 µM) in data set [11]; 1 µg/mL in data set [17]; 1 µg/mL in data set [18]; 0.25 µg/mL in data set [22]. The MIC was 0.25 µg/mL in [26] and 1 µg/mL in data set [29]. Besides, the result in [3] and in data set [27] was inactive. Further, the “fractional inhibitory concentration index (FICI)” value in data set [4] is reported as 0.5; in [5], 0.313; in [19], 0.75; in data set [23], 0.75; in data set [24], 1; in data set [25], 1. Further, the viability at 48 h, 64 ug/ml in [8] was more than 50%. Further, the result in data set [12], in data set [13], in data set [14], in data set [16], in [20] and in data set [28] was Active. In addition, the result in [31] and in data set [32] was Active.
On to `CCCCCCc1c(-c2ccc(OCCCCN(C)C)cc2OCCCCN(C)C)oc2cc(OC)cc(O)c2c1=O`, for which the MIC in data set [2] was 1 µg/mL; in data set [9] it was 1 µg/mL (≈ 1.72 µM); in data set [11], 1 µg/mL (≈ 1.72 µM); in data set [17], 1 µg/mL; in data set [18], 1 µg/mL; in data set [29], 1 µg/mL. Besides, the outcome in data set [3] and in data set [27] was inactive. For the same compound, the Activity result in data set [7] and in [10] was “Dose-Dependent Effect” in each case. Also, the result in [12], in [16], in [20], in data set [31] and in [32] was Active.
For the compound `CCCCCCc1c(-c2ccc(OCC(=O)CN[C@H](CCCNC(=N)N)C(=O)OC)cc2OCC(=O)CN[C@H](CCCNC(=N)N)C(=O)OC)oc2cc(OC)cc(O)c2c1=O`, the outcome in [3] and in data set [27] was inactive. For the same compound, the MIC in [33] was 1 µg/mL; in data set [34] it was 32 µg/mL; in data set [9] it was 32 µg/mL (≈ 36.8 µM); in [11], 1 µg/mL (≈ 1.15 µM); in [35] it was 32 µg/mL; in data set [36], 1 µg/mL. Also, the MIC in data set [37] worked out at 32 µg/mL. Moreover, the Activity entry in [7] and in data set [10] was “Dose-Dependent Effect” throughout. For the same compound, the result in data set [12], in [16], in data set [20], in data set [31] and in [32] was Active.
